From patent US6414114B2, “Disulfides and thiol compounds” (Dovetail Technologies, Inc., priority 1998, dated 2002)

Assays:
[1] = Solubility in acetonitrile/water; assay type: physicochemical; details: solvent acetonitrile/water as given in the value
NS-1 mouse myeloma = details: repeated administration as monotherapy soon after inoculation with relatively low doses of tumor; cited from earlier work
B16 melanoma = details: administered along with cyclophosphamide; cited from earlier work
MOPC-315 myeloma = details: administered along with melphalan; cited from earlier work
Cloudman S-91 melanoma = details: melanomas already established; cited from earlier work

For `O=C(CCNC(=O)OCc1ccccc1)N[C@@H](CSSC[C@H](NC(=O)CCNC(=O)OCc1ccccc1)C(=O)O)C(=O)O` [Cbz-βAla-Cystine-βAla-Cbz, Cbz-beta-Ala-Cystine-beta-Ala-Cbz], the Solubility [1] was “Soluble in 30% Acetonitrile/water”.

In the case of `O=C(CCNC(=O)OCc1ccccc1)NC(CS)C(=O)O` (stereo not drawn) [Cbz-beta-Ala-Cys], the Solubility [1] is reported as “Soluble in 20% Acetonitrile/Water”.

For `NCCC(=O)NCCSSCCNC(=O)CCN` [β-alethine, Beta-alanyl cysteamine disulfide], the survival rates (NS-1 mouse myeloma) is given as “significantly increased survival rates”, the “benefit as adjunct to chemotherapy” value (B16 melanoma) is given as “beneficial adjunct to chemotherapy” and the “benefit as adjunct to chemotherapy” value (MOPC-315 myeloma) is given as “beneficial adjunct to chemotherapy”. The percent survival (Cloudman S-91 melanoma) was “increase the percent survival”.
